One may read the EC50 as the concentration that produces a half-maximal response.

Structures are written as SMILES. Like-named read-outs stand apart in the source and are kept apart here.

23 compounds from patent US8785488B2 (Exelixis Patent Company LLC, priority 2009, dated 2014) can be followed below.

One assay deals with T1, h-TGR5 (Homo sapiens, UniProt Q8TDU6).
T1 construct: expressed in transfected cells
T1 sequence (Q8TDU6 1-330): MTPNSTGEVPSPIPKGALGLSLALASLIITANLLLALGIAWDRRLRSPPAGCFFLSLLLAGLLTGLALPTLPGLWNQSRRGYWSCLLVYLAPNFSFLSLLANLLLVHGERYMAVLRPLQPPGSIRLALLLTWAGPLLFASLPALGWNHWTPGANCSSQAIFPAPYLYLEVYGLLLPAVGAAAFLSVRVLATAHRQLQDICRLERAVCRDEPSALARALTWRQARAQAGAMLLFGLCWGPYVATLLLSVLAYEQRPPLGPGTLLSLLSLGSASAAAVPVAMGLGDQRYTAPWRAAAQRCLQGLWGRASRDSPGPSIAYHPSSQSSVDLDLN
Description: TGR5 cAMP Assay using Cisbio cAMP Dynamic2 htrf kit (hTGR5CRE-luc HEK 293 cells). It is filed as cell-based. Summed up:
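[…], 4000 hTGR5CRE-luc HEK 293 cells per well, with 0.5 mM IBMX and d2-cAMP, were incubated 30 min at room temperature with compounds in 8-point half-log series, in quadruplicate.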

Another assay deals with T2, human TGR5 (h-TGR5) (Homo sapiens, UniProt Q8TDU6).
T2 construct: expressed in transfected cells
T2 sequence (Q8TDU6 1-330): T1 sequence (Q8TDU6 1-330)
The experiment in a line: TGR5/CRE-Luciferiase Assay (HEK 293 hTGR5/CRE-Luc cells). It is filed as cell-based. In outline: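 HEK293 cells stably carrying hTGR5 and a CRE-luciferase reporter were exposed to serially diluted compounds (diluted in DMEM with 5% DMSO) for 6 h. Cells were then lysed in luciferase buffer, luminescence was read, and EC50 values were derived from dose-response curves.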

[1] abbreviates: h-TGR5 cAMP EC50, Table 1, read-out: cAMP (EC50).
[2] abbreviates: h-TGR5 CRE-Luc EC50, Table 1, read-out: CRE-Luc (EC50).

In the case of `CC(C)(c1ccc(Cl)c(Cl)c1)c1cnc(SCc2cc(C(=O)O)ccc2Cl)n1-c1ccc(F)cc1` [4-chloro-3-[({5-[1-(3,4-dichlorophenyl)-1-methylethyl]-1-(4-fluorophenyl)-1H-imidazol-2-yl}thio)methyl]benzoic acid], the EC50 on h-TGR5 (setting [1]) and at human TGR5 (h-TGR5) (setting [2]) was 100 to 1000 nM throughout.

In the case of `COc1ccc(C(C)(C)c2cnc(SCc3c(Cl)cccc3Cl)n2-c2ccc(F)cc2)cc1OC` [5-{1-[3,4-bis(methyloxy)phenyl]-1-methylethyl}-2-{[(2,6-dichlorophenyl)methyl]thio}-1-(4-fluorophenyl)-1H-imidazole], the 50% effective concentration (EC50) on h-TGR5 (setting [1]) and on human TGR5 (h-TGR5) (setting [2]) was < 100 nM each time.

Take `COc1cc(C(C)(C)c2cnc(SCc3cc(OCCNC(=N)N)c(Cl)cc3F)n2-c2ccc(F)cc2)ccc1Cl` [1-(2-{[2-chloro-5-({[5-{1-[4-chloro-3-(methyloxy)phenyl]-1-methylethyl}-1-(4-fluorophenyl)-1H-imidazol-2-yl]thio}methyl)-4-fluorophenyl]oxy}ethyl)guanidine]: the values for the EC50 at h-TGR5 (setting [1]) and on human TGR5 (h-TGR5) (setting [2]) were < 100 nM and 100 to 1000 nM, respectively.

For `COc1cc(C(C)(C)c2cnc(SCc3c(F)cc(OCCNC(=N)N)cc3F)n2-c2ccc(F)cc2)ccc1F` [1-(2-{[3,5-difluoro-4-({[5-{1-[4-fluoro-3-(methyloxy)phenyl]-1-methylethyl}-1-(4-fluorophenyl)-1H-imidazol-2-yl]thio}methyl)phenyl]oxy}ethyl)guanidine], the EC50 at h-TGR5 (setting [1]) and at human TGR5 (h-TGR5) (setting [2]) was < 100 nM each time.

Turning to `CC(C)(c1ccc2nccnc2c1)c1nnc(SCc2c(F)cccc2Cl)n1-c1ccc(F)cc1` [Example 45], the EC50 on h-TGR5 (hTGR5CRE-luc HEK 293 cells, htrf cAMP, Table 2, read-out: h-TGR5 cAMP EC50 (cAMP)) is < 100 nM; at human TGR5 (h-TGR5) (HEK 293 hTGR5/CRE-Luc cells, 6 hours incubation, luciferase activity, Table 2, read-out: h-TGR5CRE-Luc EC50 (CRE-Luc)), < 100 nM.

For the compound `COc1cc(C(C)(C)c2cnc(SCc3ccc(S(=O)(=O)NC(=O)N4CCC(O)C4)cc3Cl)n2-c2ccc(F)cc2)ccc1Cl` (stereo not shown) [N-{[3-chloro-4-({[5-{1-[4-chloro-3-(methyloxy)phenyl]-1-methylethyl}-1-(4-fluorophenyl)-1H-imidazol-2-yl]thio}methyl)phenyl]sulfonyl}-3-hydroxypyrrolidine-1-carboxamide], the figures for the concentration giving a half-maximal response (EC50) at h-TGR5 (setting [1]) and on human TGR5 (h-TGR5) (setting [2]) were < 100 nM and 1000 to 10000 nM, respectively.

For `COc1cc(C(C)(C)c2cnc(SCc3c(F)cc(OCCNC(=N)N)cc3F)n2-c2ccc(F)cc2)ccc1Cl` [1-(2-{[4-({[5-{1-[4-chloro-3-(methyloxy)phenyl]-1-methylethyl}-1-(4-fluorophenyl)-1H-imidazol-2-yl]thio}methyl)-3,5-difluorophenyl]oxy}ethyl)guanidine], the EC50 on h-TGR5 (setting [1]) and at human TGR5 (h-TGR5) (setting [2]) was < 100 nM each time.

Regarding `COc1cc(C(C)(C)c2cnc(SCc3ccc(S(=O)(=O)NC(=O)NN4CCCC4)cc3Cl)n2-c2ccc(F)cc2)ccc1S(N)(=O)=O` [4-({[5-{1-[4-(aminosulfonyl)-3-(methyloxy)phenyl]-1-methylethyl}-1-(4-fluorophenyl)-1H-imidazol-2-yl]thio}methyl)-3-chloro-N-[(pyrrolidine-1-ylamino)carbonyl]benzenesulfonamide], the concentration for a half-maximal effect (EC50) on h-TGR5 (setting [1]) and at human TGR5 (h-TGR5) (setting [2]) was 100 to 1000 nM throughout.

Regarding `COc1cc(-n2c(C(C)(C)c3cccc(S(C)(=O)=O)c3)cnc2SCc2c(F)cc(C(=O)O)cc2F)ccc1F` [3,5-difluoro-4-{[(1-[4-fluoro-3-(methyloxy)phenyl]-5-{1-methyl-1-[3-(methylsulfonyl)phenyl]ethyl}-1H-imidazol-2-yl)thio]methyl}benzoic acid], the EC50 at h-TGR5 (setting [1]) and at human TGR5 (h-TGR5) (setting [2]) was 100 to 1000 nM in each case.

With `CC(C)(c1ccc(Cl)c(Cl)c1)c1cnc(SCc2ccc(S(=O)(=O)NC(=O)NN3CCCC3)cc2Cl)n1-c1ccc(F)cc1` [3-chloro-4-[({5-[1-(3,4-dichlorophenyl)-1-methylethyl]-1-(4-fluorophenyl)-1H-imidazol-2-yl}thio)methyl]-N-[(pyrrolidin-1-ylamino)carbonyl]benzenesulfonamide], the results for the EC50 at h-TGR5 (setting [1]) and on human TGR5 (h-TGR5) (setting [2]) were 1000 to 10000 nM and 100 to 1000 nM, respectively.

As to `CC(C)(c1ccc(Cl)c(Cl)c1)c1cnc(S(=O)(=O)NCc2c(F)cccc2Cl)n1-c1ccc(F)cc1` [N-[(2-chloro-6-fluorophenyl)methyl]-5-[1-(3,4-dichlorophenyl)-1-methylethyl]-1-(4-fluorophenyl)-1H-imidazole-2-sulfonamide], the EC50 on h-TGR5 (setting [1]) and on human TGR5 (h-TGR5) (setting [2]) was 100 to 1000 nM in each case.

For `O=C(O)c1cc(F)c(CSc2ncc(C3(c4ccc(Cl)c(Cl)c4)CC3)n2-c2ccc(F)cc2)c(F)c1` [4-[({5-[1-(3,4-dichlorophenyl)cyclopropyl]-1-(4-fluorophenyl)-1H-imidazol-2-yl}thio)methyl]-3,5-difluorobenzoic acid], the EC50 on h-TGR5 (setting [1]) and at human TGR5 (h-TGR5) (setting [2]) was 100 to 1000 nM each time.

Take `CC(C)(c1ccc(Cl)c(Cl)c1)c1cnc(SCc2c(F)cccc2Cl)n1-c1ccc(F)cc1` [2-{[(2-chloro-6-fluorophenyl)methyl]thio}-5-[1-(3,4-dichlorophenyl)-1-methylethyl]-1-(4-fluorophenyl)-1H-imidazole]: the values for the EC50 at h-TGR5 (setting [1]) and at human TGR5 (h-TGR5) (setting [2]) were 100 to 1000 nM and < 100 nM, respectively.

Turning to `CCCNC(=O)NS(=O)(=O)c1ccc(CSc2ncc(C(C)(C)c3ccc(Cl)c(OC)c3)n2-c2ccc(F)cc2)c(Cl)c1` [3-chloro-4-({[5-{1-[4-chloro-3-(methyloxy)phenyl]-1-methylethyl}-1-(4-fluorophenyl)-1H-imidazol-2-yl]thio}methyl)-N-[(propylamino)carbonyl]benzenesulfonamide], the EC50 on h-TGR5 (setting [1]) and at human TGR5 (h-TGR5) (setting [2]) was < 100 nM each time.

In the case of `CC(C)(c1ccc(Cl)c(Cl)c1)c1cnc(CNC2CCN(S(C)(=O)=O)CC2)n1-c1ccc(F)cc1` [N-({5-[1-(3,4-dichlorophenyl)-1-methylethyl]-1-(4-fluorophenyl)-1H-imidazol-2-yl}methyl)-1-(methylsulfonyl)piperidin-4-amine], the EC50 on h-TGR5 (setting [1]) and at human TGR5 (h-TGR5) (setting [2]) was 1000 to 10000 nM each time.

Regarding `COc1cc(C(C)(C)c2cnc(SCc3c(F)cc(N)cc3Cl)n2-c2ccc(F)cc2)ccc1Cl` [3-chloro-4-({[5-{1-[4-chloro-3-(methyloxy)phenyl]-1-methylethyl}-1-(4-fluorophenyl)-1H-imidazol-2-yl]thio}methyl)-5-fluoroaniline], the EC50 on h-TGR5 (setting [1]) and on human TGR5 (h-TGR5) (setting [2]) was < 100 nM throughout.

Consider `CC(C)(c1ccc(Cl)c(Cl)c1)c1cnc(SCc2ccc(-c3nnn[nH]3)cc2F)n1-c1ccc(F)cc1` [5-{4-[({5-[1-(3,4-dichlorophenyl)-1-methylethyl]-1-(4-fluorophenyl)-1H-imidazol-2-yl}thio)methyl]-3-fluorophenyl}-1H-tetrazole], for which the EC50 at h-TGR5 (setting [1]) and at human TGR5 (h-TGR5) (setting [2]) was 100 to 1000 nM throughout.

In the case of `CC(C)(c1ccc(Cl)c(Cl)c1)c1cnc(SCc2ccc(-c3nnn[nH]3)cc2Cl)n1-c1ccc(F)cc1` [5-{3-chloro-4-[({5-[1-(3,4-dichlorophenyl)-1-methylethyl]-1-(4-fluorophenyl)-1H-imidazol-2-yl}thio)methyl]phenyl}-1H-tetrazole], the EC50 on h-TGR5 (setting [1]) and on human TGR5 (h-TGR5) (setting [2]) was 100 to 1000 nM each time.

As to `COc1ccc(C(C)(C)c2cnc(CSc3c(F)cccc3Cl)n2-c2ccc(F)cc2)cc1OC` [5-{1-[3,4-bis(methyloxy)phenyl]-1-methylethyl}-2-{[(2-chloro-6-fluorophenyl)thio]methyl}-1-(4-fluorophenyl)-1H-imidazole], the EC50 at h-TGR5 (setting [1]) and on human TGR5 (h-TGR5) (setting [2]) was < 100 nM in each case.

As to `CC(C)(c1ccc(S(N)(=O)=O)c(Cl)c1)c1cnc(SCc2ccc(Cl)c(-c3nnn[nH]3)c2)n1-c1ccc(F)cc1` [2-chloro-4-{1-[2-({[4-chloro-3-(1H-tetrazol-5-yl)phenyl]methyl}thio)-1-(4-fluorophenyl)-1H-imidazol-5-yl]-1-methylethyl}benzenesulfonamide], the EC50 on h-TGR5 (setting [1]) and on human TGR5 (h-TGR5) (setting [2]) was 100 to 1000 nM each time.

As to `CC(C)(c1ccc(S(N)(=O)=O)cc1)c1cnc(SCc2c(F)cccc2Cl)n1-c1ccc(F)cc1` [4-{1-[2-{[(2-chloro-6-fluorophenyl)methyl]thio}-1-(4-fluorophenyl)-1H-imidazol-5-yl]-1-methylethyl}benzenesulfonamide], the EC50 at h-TGR5 (setting [1]) and at human TGR5 (h-TGR5) (setting [2]) was 100 to 1000 nM each time.

With `COc1cc(C(C)(C)c2cnc(COc3ccc(Cl)c(-c4nnn[nH]4)c3)n2-c2ccc(F)cc2)ccc1Cl` [5-[2-chloro-5-({[5-{1-[4-chloro-3-(methyloxy)phenyl]-1-methylethyl}-1-(4-fluorophenyl)-1H-imidazol-2-yl]methyl}oxy)phenyl]-1H-tetrazole], the EC50 on h-TGR5 (setting [1]) was 100 to 1000 nM; at human TGR5 (h-TGR5) (setting [2]) it was < 100 nM.

In the case of `COc1cc(-n2c(C(C)(C)c3ccc(S(N)(=O)=O)c(Cl)c3)cnc2SCc2ccc(Cl)c(-c3nnn[nH]3)c2)ccc1F` [2-chloro-4-(1-{2-({[4-chloro-3-(1H-tetrazol-5-yl)phenyl]methyl}thio)-1-[4-fluoro-3-(methyloxy)phenyl]-1H-imidazol-5-yl}-1-methylethyl)benzenesulfonamide], the EC50 at h-TGR5 (setting [1]) and on human TGR5 (h-TGR5) (setting [2]) was 100 to 1000 nM in each case.
